In patent US20130209439A1, “INHIBITORS OF PDE4 BINDING TO HSP20” (THE UNIVERSITY COURT OF THE UNIVERSITY OF GLASGOW, priority 2010, published 2013):

What was measured:
[1] = tested on: pS16-Hsp20 in SH-SY5Y cells; assay: Cell based Hsp20-PDE4D disruptor assay, nucleofected SH-SY5Y cells, pS16-Hsp20 Western blot; design: species or system human; details: SH-SY5Y cells nucleofected with 500 μM peptide, 2 hours
Experimental: FIG. 9. Disrupter induced HSP20 phosphorylation SH-SY5Y cells nucleofected with 500 μM of each peptide and incubated for 2 hours prior to harvesting. Each assay was blotted for Hsp20, pS16-Hsp20 and tubulin. Changes in levels of phospho-Hsp20 relative to DMSO only controls were quantified through densitometry analysis and each assay was normalised to α-tubulin loading control. The results are the average of three separate experiments and error bars represent SEM. *=p<0.05, **=p<0.01 compared to DMSO only controls (Student-T-test)
SDS-PAGE analysis was done on NuPage® pre-cast gels X-cell apparatus (Invitrogen, Paisley) using MES-SDS running buffer, Samples were reduced in Laemmli 2× loading buffer (4% SOS) with 5% β-mercaptoethanol. For Western Blotting (WB) analysis, samples were transferred using NuPage® X-cell blotting module onto a nitrocellulose membrane. Membranes were blocked using 5% Milk in 1×TBST (w/v). Antibodies were incubated in 1% milk in 1×TBST (w/v) for either 1 hour at room temperature or overnight at 4° C. Signals were detected using enhanced chemiluminescence system (Pierce) and developed on an X-omat film developer. Subsequent densitometry analysis was carried out using Quantity One (Bio-Rad).
SH-SY5Y cells (ATCC-CRL-2266) were grown in Dulbecco's Modified Eagle's Medium (DMEM) and F12-Ham's at a 1:1 ratio, media was supplemented with 10% (v/v) fetal bovine serum (FBS), 1% (v/v) L-Glutamine, 1% (v/v) Minimum Essential Medium—With Non-essential Amino Acids (MEM-NAA) and 1% (v/v) Pen/strep. Cells were cultured in a humidified, 5% (v/v) CO2, 37° C. incubator.
SH-SY5Y cells were nucleofected using Cell Line Nucleofector® Kit-V in accordance with manufacturers protocol (Amaxa Biosystems). Setting A-23 on the Nucleofector I device was used which increases cell viability. For each assay, 500 μM of disrupter peptide was incubated with 100 μl of nucleofection solution containing approximately 2×10^6 cells. After nucleofection cells were re-suspended in 500 μl of culture media before being transferred to a 6 well plate with a final volume of 2 ml per well. Cells were incubated for 2 hours prior to harvesting with […] containing protease and phosphatase inhibitors (Roche).
As the cell permeability of the peptides is unknown we used an electroporation technique to introduce the peptides into the SH-SY5Y cells. The Amaxa cell-line specific Nucleofector Kit V (Lonza) was used to transfect the peptides into the cells. […] Each assay used a final concentration of 500 μM of peptide in nucleofector solution containing approximately 2×10^6 SH-SY5Y cells. As peptides were dissolved in 100% DMSO, control transfections with DMSO only were used to compare any changes in phospho-Hsp20 levels. After each transfection the solution was reconstituted in culture media and incubated for 2 hours to allow for cell adhesion prior to the harvesting of viable cells.

[2] = target: T1, His-Hsp20 (Homo sapiens, UniProt O14558); assay: SPOT peptide array overlaid with His-Hsp20; assay type: binding; details: overlay with 10 μg/ml purified His-Hsp20
T1 construct: made in house; host or cells: E. coli BL21
T1 sequence (O14558 1-160): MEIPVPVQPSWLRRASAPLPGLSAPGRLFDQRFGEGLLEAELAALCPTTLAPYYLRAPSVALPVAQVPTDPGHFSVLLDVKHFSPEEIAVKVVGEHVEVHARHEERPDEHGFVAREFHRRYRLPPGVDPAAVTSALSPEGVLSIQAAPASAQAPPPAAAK
Experimental: A variety of peptides were generated and SPOT-synthesised onto slides which were then overlaid with 10 μg/ml of purified His-Hsp20. Interaction with peptides and Hsp20 was evaluated by probing slides with anti-His or Hsp20 antibodies and analysed using enhanced chemi-luminescence techniques, Negative controls used anti-His antibody only with no overlay of His-Hsp20 protein (data not shown). Positive interaction domains were then subjected to further rounds of truncations and key endogenous residues were substituted for non-native residues to ascertain what effects this would have in the binding of Hsp20.
This was done as described in detail elsewhere^41.
PDE4 isoform localisation invariably depends on protein-protein interactions, with PDE4s shown to associate with a diverse group of interacting partners such as RACK1^32, 36, βarrestin^36, β1-Ar^37, DISC1^38, the p75 neurotrophin receptor^39 and the cardiac IKs potassium channel^40. One method that has been pivotal in mapping the sites of association between PDE4s and their binding partners is peptide array^36. SPOT immobilised peptide libraries of PDE4 sequences have been utilised to accurately predict binding domains for partner proteins. Here we have employed this novel technique to define the HSP20 binding site within the sequence of PDE4D5, an isoform that is endogenously expressed in cardiomyocytes. Peptide arrays of overlapping 25-mer peptides, sequentially shifted by 5 amino acids and spanning the entire sequence of PDE4D5, were incubated with purified recombinant HSP20-6his. Dark spots represent positive areas of HSP20 interaction whereas clear spots are negative for the association (FIG. 4A). While no signal was observed when the arrays were overlaid with BSA, positive signals were obtained for 25mer peptides 93 to 96 following HSP20-6His overlay. Peptides 93 to 96 span the amino acid sequence Y^461-K^500 within the conserved catalytic domain of PDE4D5 (FIG. 4A: middle panels). […]

[3] = tested on: cAMP in the vicinity of HSP20; assay: cAMP FRET with cytosolic and HSP20-targeted reporters in cardiac myocytes; assay type: cell-based, rat
Excerpt: FIG. 5. Measurement of relative cAMP concentration in the vicinity of HSP20 using targeted cAMP FRET probes. A, Representative traces showing FRET ratios that indicate relative cAMP concentrations measured by cytosolic and HSP20 targeted cAMP reporter constructs. B, Upper panel, graphical depiction of maximum FRET ratios achieved using both cytosolic and HSP20-targeted probes following treatment with isoprenaline (Iso), rolipram (Roli) and IBMX. Lower panel, images of the localisation of cytosolic and HSP20-targeted cAMP reporter constructs.
The Hsp20-targeted cAMP FRET probe was generated by cloning the Hsp20 open reading frame, excluding the stop codon, immediately 5′ to the EPACG-based FRET sensor^55. Hsp20 open reading frame was amplified from the Ultimate™ ORF clone IOH57317 (Invitrogen) using the following primers to incorporate HindIII restriction sites at both 5′ and 3′ ends: Forward 5′-gcacaagctt[…]-3′ (SEQ ID NO: 70) Reverse 5′-gcacaagctt[…]-3′ (SEQ ID NO: 71). […]
Primary cultures of ventricular cardiac myocytes were prepared from 1-3 day old Sprague-Dawley rats, as described above. […] FRET changes were measured following background subtraction by dividing the intensity of emissions at 480 nm and 545 nm, following excitation at 440 nm. Data are expressed as dR/R0, where R=fret ratio at time t (sec), R0=fret ratio at time zero, and dR=R−R0. […]

[4] = tested on: Phospho-Ser16 HSP20 in neonatal cardiac myocytes; assay: Ser16 phosphorylation of endogenous HSP20 in neonatal cardiac myocytes (Western blot); assay type: cell-based, rat
Experimental: FIG. 2. The phosphorylation of HSP20 at Ser16 is modulated by PDE4 activity in cardiac myocytes. A, Neonatal cardiac myocytes were treated with isoprenaline for indicated times with or without pre-treatment with the PDE4-specific inhibitor, rolipram. Cellular lysates were blotted for HSP20 and Phospho-Ser16 HSP20. B, Quantifications of data from FIG. 2A (n=3). * Denotes significance at a level p<0.05 over iso treatment.
(§1) HEK293B2 cells are a stable cell line overexpressing the GFP-tagged β2AR were cultured as previously described^48. HEK293B2 cells were transiently transfected with wild type HSP20 or a phosphorylation defective HSP20 (S16A) or a phosphorylation mimic HSP20 (S16D). Neonatal cardiac myocytes were prepared and cultured as previously described^30. Cell lysis, immunopurification and western blotting was done as described before by us in some detail^48. Briefly, HEK 293 cells were transiently transfected with wild-type HSP20 by using Polyfect Transfection Reagent (Qiagen). Transfected HEK 293 cells were treated with 10 μM bs906 or 10 μM control peptide for 0, 15, 30, 60 and 120 min. Control and treated transfected HEK 293 cells were then washed thrice with ice cold PBS (phosphate buffered saline) before cellular lysates were prepared. Cellular lysates were prepared in lysis buffer containing 25 mM Hepes, pH 7.5, 2.5 mM EDTA, 50 mM NaCl, 50 mM NaF, […], 10% (v/v) glycerol, 1% (v/v) Triton X-100 and Complete™ EDTA-free protease inhibitor cocktail tablets (Roche). Protein concentration of lysates were determined using the Bradford assay and all samples were equalised for protein concentration. Proteins were separated by SOS/PAGE (4-12% Bis-Tris gels) and transferred onto nitrocellulose membranes for Western blotting. Antibodies were used to detect phospho-proteins and native proteins in lysates from control and treated cells
To determine whether inhibition of PDE4 activity had similar effects on endogenous phospho-HSP20 levels in heart cells, similar experiments were undertaken using neonatal cardiomyocytes (FIG. 2).

[5] = tested on: Phospho-Ser16 HSP20 in HEKB2 cells; assay: Ser16 phosphorylation of HSP20 in HEKB2 cells overexpressing HSP20 (Western blot); assay type: cell-based; details: HEKB2 cells
Experimental: FIG. 1. The phosphorylation of HSP20 at Ser16 is modulated by PDE4 activity in HEKB2 cells. A, HEKB2 cells overexpressing HSP20 or HSP20 ser16-Ala mutant were treated with isoprenaline for indicated times. Cellular lysates were blotted for HSP20 and Phospho-Ser16 HSP20. B, HEKB2 cells overexpressing HSP20 were treated with isoprenaline for indicated times, Cellular lysates were blotted for HSP20 and Phospho-Ser16 HSP20. C, HEKB2 cells overexpressing HSP20 were treated with isoprenaline for indicated times following pre-treatment with the PDE4-specific inhibitor, rolipram. Cellular lysates were blotted for HSP20 and Phospho-Ser16 HSP20. D, Quantifications of data from FIGS. 1B and 1C (n=4). * Denotes significance at a level p<0.05 E, Lysate from untransfected HEKB2 cells was blotted for HSP20 and Phospho-Ser16 HSP20.
as §1
In contrast to this, when we transfected these cells with a phospho-null mutant form, Ser16Ala-Hsp20, then no such change was observed (FIG. 1A). In order to evaluate whether PDE4 activity played a role in regulating this phosphorylation process in Hsp20-transfected HEKB2 cells, cells that had either been pre-treated or not with the PDE4 selective inhibitor rolipram were subsequently challenged with isoprenaline (1 μM) (FIGS. 1B and C). […] Endogenous levels of phospho-HSP20 or HSP20 were not detectable in HEKB2 cells (FIG. 1E).

Compound	pS16-Hsp20 levels relative to DMSO only controls [1]	binding of Hsp20 to peptide on array [2]	cAMP FRET response, HSP20-targeted reporter compared with cytosolic probe [3]	further results
Ac-KLL-NH2 (Ac-Lys-Leu-Leu-NH2) [Peptide 10]	indistinguishable from DMSO only controls	shortest size		
COc1ccc(C2CNC(=O)C2)cc1OC1CCCC1 (stereo not drawn) [rolipram]			clearly greater in the HSP20 targeted reporter	phospho-HSP20 levels ([4]; cardiomyocytes, PDE4 inhibition alone): marked increase in phospho-HSP20 levels; isoprenaline-induced increase in endogenous phospho-HSP20 levels ([4]; neonatal cardiomyocytes, rolipram pre-treatment): markedly augmented; isoprenaline-stimulated HSP20 phosphorylation ([5]; rolipram pre-treatment then isoprenaline 1 μM): increased isoprenaline-stimulated HSP20 phosphorylation; phospho-HSP20 levels compared to resting cells ([5]; rolipram treatment alone): clear increase in phospho-HSP20 levels
Ac-FQNLTR-NH2 [Peptide 5]	inability	shown to bind HSP20		
CC(C)Cn1c(=O)n(C)c(=O)c2[nH]cnc21 [IBMX]			identical maximal response	
Ac-GFK-NH2 (Ac-Gly-Phe-Lys-NH2) [Peptide 17]	indistinguishable from DMSO only controls	shortest size		
